Columns and labels:
[1] = molecular target: T1, Sodium/glucose cotransporter 2 (Homo sapiens) (UniProt P31639); assay: Inhibition of human SGLT2 expressed in COS1 cells assessed as [14C]methyl-alpha-D-glucopyranoside uptake at 50 uM; type: cell-based; details: COS-1
T1 sequence (whole entry): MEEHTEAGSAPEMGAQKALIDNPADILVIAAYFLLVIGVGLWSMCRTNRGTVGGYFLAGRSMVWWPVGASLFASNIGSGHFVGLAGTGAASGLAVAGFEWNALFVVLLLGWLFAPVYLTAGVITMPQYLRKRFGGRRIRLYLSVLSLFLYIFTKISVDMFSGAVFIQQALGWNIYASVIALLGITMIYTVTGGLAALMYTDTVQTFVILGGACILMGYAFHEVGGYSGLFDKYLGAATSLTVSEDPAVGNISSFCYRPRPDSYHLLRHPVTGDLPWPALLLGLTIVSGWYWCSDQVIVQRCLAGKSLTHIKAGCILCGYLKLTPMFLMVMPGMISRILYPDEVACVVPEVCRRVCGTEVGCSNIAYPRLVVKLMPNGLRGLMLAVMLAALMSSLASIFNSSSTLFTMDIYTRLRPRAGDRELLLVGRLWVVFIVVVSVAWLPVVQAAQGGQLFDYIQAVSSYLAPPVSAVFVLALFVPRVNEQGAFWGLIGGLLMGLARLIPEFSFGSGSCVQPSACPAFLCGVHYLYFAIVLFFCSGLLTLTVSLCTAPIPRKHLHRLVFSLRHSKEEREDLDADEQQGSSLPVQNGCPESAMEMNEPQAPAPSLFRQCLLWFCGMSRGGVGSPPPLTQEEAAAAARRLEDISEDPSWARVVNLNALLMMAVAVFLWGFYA

[2] = molecular target: T2, Sodium/glucose cotransporter 1 (Homo sapiens) (UniProt P13866); assay: Inhibition of human SGLT1 expressed in COS1 cells assessed as [14C]methyl-alpha-D-glucopyranoside uptake at 50 uM; type: cell-based; details: COS-1
T2 sequence (whole entry): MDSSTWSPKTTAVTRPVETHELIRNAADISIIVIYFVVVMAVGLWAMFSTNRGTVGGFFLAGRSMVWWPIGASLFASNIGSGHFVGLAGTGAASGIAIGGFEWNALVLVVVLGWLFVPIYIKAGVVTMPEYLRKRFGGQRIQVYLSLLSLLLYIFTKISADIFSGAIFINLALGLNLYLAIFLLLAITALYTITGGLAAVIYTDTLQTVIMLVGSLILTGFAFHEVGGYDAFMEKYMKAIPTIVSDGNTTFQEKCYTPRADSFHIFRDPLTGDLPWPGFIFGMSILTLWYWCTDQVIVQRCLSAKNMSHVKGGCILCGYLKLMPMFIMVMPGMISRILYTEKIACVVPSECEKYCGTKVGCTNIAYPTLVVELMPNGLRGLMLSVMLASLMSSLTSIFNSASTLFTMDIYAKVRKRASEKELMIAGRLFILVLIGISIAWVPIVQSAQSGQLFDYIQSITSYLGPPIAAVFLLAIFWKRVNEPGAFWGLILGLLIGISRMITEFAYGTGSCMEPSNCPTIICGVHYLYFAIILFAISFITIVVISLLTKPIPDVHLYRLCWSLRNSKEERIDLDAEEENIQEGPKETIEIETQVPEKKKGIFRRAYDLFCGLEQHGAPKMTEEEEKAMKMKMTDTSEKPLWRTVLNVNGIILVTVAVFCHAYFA

Compound | inhibition [1] | inhibition [2]
O=C1CCc2ccc(cc2)Oc2cc(ccc2O)CCCCN1 | 76.9% | 46.5%
CC(C)C(=O)Oc1ccc2cc1Oc1ccc(cc1)CC[C@@H](OC(=O)C(C)C)CCCC2 | 34.3% | 20.6%
O=C(Oc1ccc2cc1Oc1ccc(cc1)CC[C@@H](OC(=O)c1ccc(Cl)cc1)CCCC2)c1ccc(Cl)cc1 | 16.8% | 15.7%
O=C1CCCCc2ccc(OC(=O)c3ccccc3)c(c2)Oc2ccc(cc2)CC1 | 45.2% | 1.4%
OC[C@H]1O[C@H](Oc2ccc3cc2Oc2ccc(cc2)CC[C@@H](O)CCCC3)[C@H](O)[C@@H](O)[C@@H]1O | 15% | 18.3%
COc1ccc2cc1Oc1ccc(cc1)CC[C@@H](O)CCCC2 | 29.5% | 67.8%
Oc1ccc2cc1Oc1ccc(cc1)CCCC[C@H](O)CC2 | 54.2% | 94.2%
COc1ccc2cc1Oc1ccc(cc1)CCCCC(O)CC2 (stereo not drawn) | 62.4% | 77.9%
COc1ccc2cc1Oc1ccc(cc1)CCC(=O)CCCC2 | 53.3% | 44.6%
O=C1CCCCc2ccc(OCc3ccccc3)c(c2)Oc2ccc(cc2)CC1 | 19.8% | 3.9%
O=C(Oc1ccc2cc1Oc1ccc(cc1)CC[C@@H](OC(=O)c1ccccc1)CCCC2)c1ccccc1 | -9.7% | -1.7%
Oc1ccc2cc1Oc1ccc(cc1)C/C=C/CCCC2 | 15.3% | 73.7%
Oc1ccc2cc1Oc1ccc(cc1)CCCCCCC2 | 77.4% | 96.3%
COc1ccc2cc1Oc1ccc(cc1)CCCCC(=O)CC2 | 65.4% | 37.7%
O=C1CCCCc2ccc(O)c(c2)Oc2ccc(cc2)CC1 | 67.8% | 44.9%
O[C@H]1CCCCc2ccc(OCc3ccccc3)c(c2)Oc2ccc(cc2)CC1 | 45.3% | 31.4%
CC(=O)Oc1ccc2cc1Oc1ccc(cc1)CCC(=O)CCCC2 | 19.3% | 13.5%
Oc1ccc2cc1Oc1ccc(cc1)CC[C@H](O)CCCC2 | 33.9% | 92.7%
CC(=O)Oc1ccc2cc1Oc1ccc(cc1)CC[C@@H](OC(C)=O)CCCC2 | 67.5% | 68.8%
